Assay results reported in US8053627B2, “Methods for treating demyelination disorders” (University of Chicago, priority 2005, dated 2011).

Legend:
BIP, CHOP, p-eIF-2α = experiment: ER stress markers in corpus callosum during remyelination (real time PCR, Western blot); type: in vivo; conditions: DOX− mice
Experimental: Repression of remyelination by IFN-γ is associated with ER stress. […] To determine whether IFN-γ interferes with endoplasmic reticulum (ER) function in remyelinating oligodendrocytes, the expression of ER stress markers was monitored in the corpus callosum of mice expressing IFN-γ. The study was performed using the transgenic mice described in Example 1.
The level of mRNA encoding ER stress associated genes binding immunoglobulin protein/78 KDa glucose regulated protein (BIP/GRP78) and the CAATT enhancer-binding protein homologous protein/growth and DNA damage protein 153 (CHOP/GADD153), was determined using real time PCR, as described in Example 1 in the corpus callosum of the cuprizone treated mice of Example 1. The probes, sense and antisense primers that were used were: […]
The level of phosphorylated eIF-2α, which inhibits nucleotide exchange on the eIF-2 complex and attenuates most protein synthesis, was analyzed by Western blot, and the expression was colocalized by immunostaining CC1 antibodies as described above. Western blot analysis was performed as follows. The corpus callosum from 3 mice was rinsed in ice cold phosphate-buffered saline (PBS) and pooled, and immediately homogenized in 5 volumes of Triton X-100 buffer (20 mM HEPES pH 7.5, 150 mM NaCl, 1% Triton X-100, 10% glycerol, 1 mM EDTA, 10 mM tetrasodium pyrophosphate, 100 mM NaF, 17.5 mM β-glycerophosphate, 10 mM phenylmethylsulfonyl fluoride, 15 μg/ml aprotonin, and 6 μg/ml pepstatin A) using a motorized homogenizer. After incubation on ice for 15 min, the extracts were cleared by centrifugation at 14,000 rpm twice for 30 min each. The protein content of each extract was […] by protein assay (Bio-Rad). The extracts (40 μg) were separated by sodium dodecyl sulfate-polyacrylamide gel electrophoresis and transferred to nitrocellulose. […] The following primary antibodies were used: anti-eIF-2α (1:500; Santa Cruz, Santa Cruz, Calif.), anti-p-eIF-2α (1:1000, Cell signaling Technology), anti-CHOP (1:500; Santa Cruz) and anti-actin (1:1000; Sigma, St Louis, Mo.).

Stat1 = Stat1 nuclear translocation assay in mixed primary oligodendrocyte cultures; type: cell-based, mice; conditions: 100 U/mL IFN-γ for 30 min, one hundred PLP positive cells counted
Experimental: Mixed primary oligodendrocyte cultures were prepared as previously described (Baerwald et al., 2000). Briefly, brain tissue was harvested from 2-3-day-old newborn pups of PLP/SOCS1 and C57B1/6J matings. Because the litters contained transgenic and wild-type pups, the brain of each animal was processed individually, cultured separately, and later genotype matched. Each brain was digested separately using 0.25% trypsin and 10 μg/ml of DNAaseI (Invitrogen) in Dulbecco's modified Eagle's medium (DMEM) for 20 min at 37° C., and cells were cultured on separate poly-D-lysine-coated […] flasks (Sigma-Aldrich). The cultures were maintained with 10% fetal bovine serum DMEM at 37° C. with 5% CO2 for 12 days, and then switched to a defined medium containing […], 50 μg/ml of transferrin, 30 nM of selenium, 10 nM of biotin, 10 nM of progesterone, 15 nM of T3, 0.1% bovine serum albumin, and 1% ampicillin-streptomycin (Sigma-Aldrich). […] One hundred PLP positive cells were manually counted in both wild-type and PLP/SOCS1 cultures. […]
The responsiveness of PLP/SOCS1 oligodendrocytes to IFN-γ was studied in primary mixed glial cultures. […] In contrast, Stat1 nuclear translocation was detected only in occasional PLP positive oligodendrocytes (6±2 cells) following IFN-γ stimulation (p<0.05).

## IFN-γ: pleotropic cytokine secreted by activated T lymphocytes and natural killer cells; delivered to the CNS by transgene or added as recombinant protein
BIP, CHOP, p-eIF-2α
  BIP mRNA increase vs control DOX+: approximately 2 fold
  CHOP mRNA increase vs control DOX+: approximately 2 fold
  CHOP protein elevation (Western blot): approximately 1.7 fold
  phosphorylated eIF-2α elevation (Western blot): approximately 1.8 fold
Stat1; PLP/SOCS1 cultures
  PLP positive oligodendrocytes with Stat1 nuclear translocation: 6±2 cells
Stat1; wild-type cultures
  PLP positive oligodendrocytes with Stat1 nuclear translocation: 96±3 cells
